Measured values reported in patent publication US9464064B2, “HCV helicase inhibitors and methods of use thereof” (University of Kansas, priority 2011, dated 2016).
Like-named read-outs stand apart in the source and are kept apart here.

Assays:
[1] = target: MBHA DNA substrate; assay: Fluorescent intercalation displacement (FID) assay, ethidium bromide; type: binding; conditions: for EC50: FID, mean ± SD, read-out: DNA Binding (Ethidium Bromide) EC50
Method: Fluorescent intercalation displacement (FID) assays (Boger, et al. (2001) J. Am. Chem. Soc. 123:5878-5891) were used to measure the ability of a compound to bind the MBHA substrate. The concentration at which half the ethidium bromide is displaced (EC50) was determined using the different conditions as above to more closely mimic the conditions of a standard helicase assay. Each 100 μL reaction contained 25 mM MOPS pH 6.5, 0.16 μM MBHA DNA substrate (lacking Cy5 and IBQ-RQ modifications), 2 μM ethidium bromide, and various concentrations of test compound. Fluorescence of ethidium bromide was monitored using excitation and emission wavelengths of 545 and 595 nm, respectively, on a Cary Eclipse fluorescence spectrophotometer in white 96-well plates. The amount of ethidium bromide-DNA complex fluorescence was used to estimate the ability of compounds to bind DNA, and therefore displace the fluorescent intercalator (ethidium bromide).
In Equation 4, Fc is the fluorescence in the presence of the compound, F(−) is the average DMSO-only negative controls, and F(+) is the average positive controls (100 μM berenil). EC50 values were from a normalized dose-response curve.
These twelve hits were then subjected to a counterscreen designed to independently identify DNA binding compounds using a modified fluorescent intercalator displacement (FID) assay (Boger, et al. (2001) supra). The FID assay used ethidium bromide to judge a compound's ability to bind DNA and was based on the assumption that a DNA binding compound would displace a fluorescent DNA intercalating agent, leading to an observable decrease in observed fluorescence. Compounds were tested at 1.5 μM in the presence of the 25 base pair substrate used in the helicase assays.

[2] = target: T1, HCV NS3 helicase NS3h_1b(con1) (Hepatitis C virus genotype 1b, UniProt Q9WMX2); assay: biochemical; type: biochemical, hepatitis C virus genotype 1b(con1)
T1 construct: truncated C-terminally His-tagged NS3 proteins lacking the N-terminal protease, called NS3h; His-tag (C); made in house
T1 sequence (Q9WMX2 1192-1657): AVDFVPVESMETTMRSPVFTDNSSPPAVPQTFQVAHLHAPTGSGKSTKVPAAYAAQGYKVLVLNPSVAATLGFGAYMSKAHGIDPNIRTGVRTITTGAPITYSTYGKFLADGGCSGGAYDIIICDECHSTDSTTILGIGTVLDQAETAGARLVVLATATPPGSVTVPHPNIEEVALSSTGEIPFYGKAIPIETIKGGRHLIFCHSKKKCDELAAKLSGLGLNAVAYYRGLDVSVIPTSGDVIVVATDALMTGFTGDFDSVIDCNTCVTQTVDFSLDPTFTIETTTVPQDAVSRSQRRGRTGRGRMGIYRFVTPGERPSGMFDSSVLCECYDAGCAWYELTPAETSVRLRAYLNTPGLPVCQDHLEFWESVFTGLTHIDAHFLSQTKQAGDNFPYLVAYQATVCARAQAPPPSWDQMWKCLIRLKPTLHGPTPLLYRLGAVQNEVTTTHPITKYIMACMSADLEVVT
Source text: (§1) All oligonucleotides were purchased from Integrated DNA Technologies (IDT, Coralville, Iowa). The partially duplex DNA substrates used in MBHAs consisted of a helicase substrate forming 25 base pairs and consists of a 45-mer bottom strand 5′-GCTCCCCGTTCATCGATTGGGGAGC(T)20-3′ (SEQ ID NO:1) and the 25-mer HCV top strand 5′-Cy5-GCTCCCCAATCGATGAACGGGGAGC-IBRQ-3′ (SEQ ID NO:2). The 19 base pair RNA substrate used in MBHAs was composed of a 39 nucleotide long bottom strand 5′-AGU GCC UUG ACG AUA CAG C(U)20-3′ (SEQ ID NO:3) and the 24 nucleotide long top strand 5′-Tye^665-AGUGCGCUGUAUCGUCAAGGCACU-IBRQSp-3′ (SEQ ID NO:4). Underlined areas denote hairpin-forming regions. DNA and RNA substrates were annealed and purified as described previously (Belon & Frick (2008) BioTechniques 45:433-40, 442).
The cloning, expression, and purification of His-tagged recombinant HCV NS3 protein have been described previously (Lam, et al. (20030 J. Virol. 77:3950-61; Heck, et al. (2008) Antimicrob. Agents Chemother. 52:1901-11; Frick et al. (2010) Methods Mol. Biol. 587:223-233; Belon, et al. & Frick (2009) J. Mol. Biol. 388:851-864).
(§2) All molecular beacon-based helicase assays (MBHAs) were performed according to known methods (Belon & Frick (2008) supra; Belon & Frick (2009) supra). […] In each flat, black 384-well plate, 56 compounds were tested, in triplicate, along with three negative controls (DMSO only), three positive controls (500 nM dT20), and two wells with no enzyme. Fluorescence was read before ATP (F0) addition and 30 minutes after ATP was added to 1 mM (F30) using a Tecan Infinite M200 fluorescence microplate reader with excitation and emission wavelengths set to 643 and 670 nm, respectively. Percent inhibition was calculated with equation 1, and compound interference in the MBHA was calculated with equation 2.
To monitor helicase reaction kinetics and to calculate IC50 values, MBHAs were performed in 60 μL in white ½ area 96-well plates and measured in a Thermo Varioscan Multimode reader (Thermo Scientific) using the 643 nm excitation wavelength and 667 emission wavelengths. Reactions were again performed by first incubating all components except for ATP for two minutes, then initiated by injecting in 1/10 volume of ATP such that the final concentration of all components was as noted above. Conditions were as described above except that 5% v/v DMSO was present in each assay. Initial reaction velocities were calculated by fitting first-order decay equation to data obtained after ATP addition and calculating an initial velocity form the resulting amplitude and rate constant.
[formula] where, v0 is the velocity observed in DMSO-only controls inhibition, h is the Hillslope coefficient, [I] is the concentration of test compound.

[3] = target: T2, HCV helicase (Hepatitis C virus genotype 1b, UniProt Q9WMX2); assay: MBHA with RNA substrate (HCV helicase-catalyzed RNA unwinding); type: biochemical; conditions: in words
T2 construct: truncated C-terminally His-tagged NS3 proteins lacking the N-terminal protease, called NS3h; His-tag (C); made in house
T2 sequence (Q9WMX2 1192-1657): as the sequence (Q9WMX2 1192-1657) above
Source text: as §1, §2
To monitor helicase reaction kinetics and to calculate IC50 values, MBHAs were performed in 60 μL in white ½ area 96-well plates and measured in a Thermo Varioscan Multimode reader (Thermo Scientific) using the 643 nm excitation wavelength and 667 emission wavelengths. […] Initial reaction velocities were calculated by fitting first-order decay equation to data obtained after ATP addition and calculating an initial velocity form the resulting amplitude and rate constant.

[4] = system: Huh-7.5 cells; assay: Cell viability assay ([…]-GLO); type: cell-based, human; conditions: 10 μM
Method: To assess compound toxicity toward Huh-7.5 cells, cells were plated and treated as above and cell viability was assessed using the […]-GLO luminescent cell viability kit (PROMEGA) following the manufacturer's instructions. Briefly, at the end of a 72 hour incubation period, the medium was aspirated and the cells were washed with 1×PBS, then an equal volume of growth medium and […]-GLO reagent was added and the lysis was initiated by mixing on an orbital shaker. The plate was incubated at 23° C. for 30 minutes and the luciferase activity was measured for 1 second using the FLUOSTAR Omega microplate reader (BMG Labtech).

[5] = system: MBHA DNA substrate; assay: Modified FID assay, SYBR Green I; type: binding; conditions: FID; mean ± SD; read-out: DNA Binding (SYBR Green I) EC50
Method: A modified FID assay, in which ethidium bromide was replaced with SYBR Green I (Invitrogen), was used to estimate a compounds affinity for the MBHA substrate. Reactions were performed as described above except that the DNA substrate was present at 0.32 μM, ethidium bromide was absent, and SYBER Green was present at (0.68 μM). Data were normalized as described above and fit to concentration-response equation using GraphPad Prism software. Titrations with each compound were performed in triplicate, and EC50 values from three independent titrations are reported ±standard deviations.

[6] = target: T3, NS3h_1b(con1) (Hepatitis C virus genotype 1b, UniProt Q9WMX2); assay: ATP hydrolysis assay (malachite green); type: biochemical
T3 construct: truncated C-terminally His-tagged NS3 proteins lacking the N-terminal protease, called NS3h; His-tag (C); made in house
T3 sequence (Q9WMX2 1192-1657): as the sequence (Q9WMX2 1192-1657) above
Method: A modified “malachite green” assay (Lanzetta, et al. (1979) Anal. Biochem. 100:95-97) was used to measure ATP hydrolysis. Fifty μL reactions contained 25 mM MOPS pH 6.5, 5 mM MgCl2, 2 mM ATP, 5 μg/mL BSA, 0.01% (v/v) TWEEN 20, 0.05 mM DTT, and poly(U) RNA (Saint Louis, Mo.) as indicated. Reactions were initiated by adding NS3h_1b(con1). Reactions were incubated for 15 minutes at 37° C. then stopped by mixing 40 μL of the reaction into 200 μL of the malachite green reagent (3 volumes 0.045% (w/v) malachite green, 1 volume 4.2% ammonium molybdate in 4N HCl, 0.05 volume of 20% TWEEN 20). […] Absorbance at 630 nm was proportional to the concentration of phosphate produced; free phosphate produced was measured against a standard curve.

[7] = target: T4, E. coli SSB-Cy5-dT15 complex (Escherichia coli, UniProt P0AGE0); assay: Escherichia coli SSB Cy5-dT15 binding assay (fluorescence polarization); conditions: disruption of Cy5-dT15-SSB complex; read-out: Cy5-dT15-SSB Binding IC50
T4 construct: purchased Promega
T4 sequence (P0AGE0 2-178, one chain of several): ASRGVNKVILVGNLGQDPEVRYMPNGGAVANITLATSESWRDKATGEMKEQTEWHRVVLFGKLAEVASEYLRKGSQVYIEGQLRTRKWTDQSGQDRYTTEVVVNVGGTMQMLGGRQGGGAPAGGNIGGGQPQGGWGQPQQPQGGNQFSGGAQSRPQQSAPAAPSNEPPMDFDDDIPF
Method: The Escherichia coli SSB assay was performed in a total volume of 20.2 μl in 384-well, flat-bottom, low volume, black microplates (Greiner Bio-One). First, 20 μl of a assay solution (5 nM Cy5-[…]-3′ (Cy5-dT15, SEQ ID NO:5), 20 nM E. coli SSB (Promega), 25 mM MOPS, pH 7.5, 1.25 mM MgCl2, 0.0025 mg/ml BSA, 0.005% (v/v) TWEEN 20 and 0.025 mM DTT) was dispensed in each well, then 0.2 μl of dimethylsulfoxide (DMSO) or compound dissolved in DMSO was added by pin transfer, such that the final concentration of DMSO was 1% (v/v) in each assay.
For IC50 determination, assays were performed with 60 μl total volume in black flat bottomed 384-well microplates (Corning). First, 3.0 μl of DMSO or compound dissolved in DMSO was added, such that the final concentration of DMSO was 5% (v/v) in each assay. Then 57 μl of a assay solution (5 nM Cy5-dT15, 20 nM SSB, 25 mM MOPS, pH 7.5, 1.25 mM MgCl2, 0.0025 mg/ml BSA, 0.005% (v/v) TWEEN 20 and 0.025 mM DTT) was dispensed in each well. Polarization was monitored with a TECAN Infinite M1000 PRO multi-mode microplate reader by exciting at 635 nm (5 nm bandwidth) and measuring total fluorescence intensity, parallel and perpendicular polarized light at 667 nm (20 nm bandwidth).

[8] = MBHA, DNA unwinding, mean ± SD of three titrations, read-out: Helicase IC50
[9] = standard HCV helicase MBHA (Table 9), read-out: DNA Unwinding IC50

SMILES	IC50 ([1]; ethidium bromide FID, read-out: IC50 in FID assays (positive control)) [µM]	IC50 [2, 8] [µM]	effect on HCV helicase catalyzed RNA unwinding [3]	toxicity to cells [4]	EC50 [1] [µM]	EC50 [5] [µM]	IC50 [6] [µM]	IC50 [7] [µM]	IC50 [2, 9] [µM]	effect on HCV helicase catalyzed DNA unwinding ([2]; in words)
N=C(N)c1ccc(N=NNc2ccc(C(=N)N)cc2)cc1 [Berenil, reference compound]	1.6 ± 0.1									
CO[C@@H]1[C@H](O)C[C@@H](O[C@@H]2C[C@H](Oc3cc4cc5c(c(O)c4c(O)c3C)C(=O)[C@@H](O[C@H]3C[C@@H](O[C@H]4C[C@@H](O[C@H]6C[C@](C)(O)[C@@H](OC(C)=O)[C@H](C)O6)[C@H](O)[C@@H](C)O4)[C@H](O)[C@@H](C)O3)[C@H]([C@H](OC)C(=O)[C@@H](O)[C@@H](C)O)C5)O[C@H](C)[C@@H]2OC(C)=O)O[C@@H]1C [Chromomycin A3, reference compound]		0.15 ± 0.03	no effect							
CCOc1ccc2c(NNC(=O)c3cnccn3)c3c(nc2c1)CCCC3 [Compound 1, reference compound]		> 100		None of the comparison helicase inhibitors were particularly toxic at 10 μM except for 1	> 100	> 100	> 100			
Cc1cc(C(O)(c2ccc(Nc3ccccc3)cc2)c2ccc(Nc3ccc(S(=O)(=O)O)cc3)cc2)ccc1N (stereo not shown) [Compound 3, reference compound]		17 ± 7			4 ± 2	20 ± 2	> 100			
CN1CCN(Cc2cc(CN3CCN(C)CC3)c(O)c(=O)c(CN3CCN(C)CC3)c2)CC1 [Compound 4, reference compound]		19 ± 8			> 100	74 ± 21	> 100			
Cc1ccc2nc(-c3ccc(N)cc3)sc2c1S(=O)(=O)O [Compound P1a, 2-(4-aminophenyl)-6-methylbenzo[d]thiazole-7-sulfonic acid]		70 ± 31			> 100	> 100	> 100	13 ± 4	70 ± 31	
Cc1cc2sc(-c3ccc(N)cc3)nc2cc1S(=O)(=O)O [Compound P1b, 2-(4-aminophenyl)-6-methylbenzo[d]thiazole-5-sulfonic acid]		122 ± 5			> 100	> 100	> 100	19 ± 8	122 ± 5	
Cc1cc2sc(-c3ccc4nc(-c5ccc(N)cc5)sc4c3)nc2cc1S(=O)(=O)O [Compound P2b, 2′-(4-aminophenyl)-6-methyl-[2,6′-bibenzo[d]thiazole]-5-sulfonic acid]		10 ± 4.6			73 ± 36	32 ± 3	> 100	1	7 ± 4	
CCN(CC)c1ccc(-c2nc3ccc(C)c(S(=O)(=O)O)c3s2)cc1 [Compound T1, 2-(4-(diethylamino)phenyl)-6-methylbenzo[d]thiazole-7-sulfonic acid]		33 ± 24			> 100		> 100	7 ± 2	33 ± 24	
CCN(CC)c1ccc(-c2nc3ccc(-c4nc5ccc(C)c(S(=O)(=O)O)c5s4)cc3s2)cc1 [Compound T2, 2′-(4-(diethylamino)phenyl)-6-methyl-[2,6′-bibenzo[d]thiazole]-7-sulfonic acid]		26 ± 21			> 100			2	5 ± 2	
Cc1c2ccncc2c(C)c2c1[nH]c1ccccc12 [ellipticine, reference compound]		5.6 ± 0.8								
Cc1ccc2c(c1)sc(-c1ccc(N(C)C)cc1)[n+]2C.[Cl-] [thioflavine T, reference compound]			no effect							no effect
